Laboratory results: US20240398822A1, “METHODS AND COMPOSITIONS FOR TREATING AND MANAGING ALZHEIMER'S DISEASE” (Pharmatrophix, Inc., priority 2021, published 2024)

Tests used:
[1] = tested on: patients with mild to moderate Alzheimer's disease; experiment: Phase IIa cognitive testing (ADAS-cog, MMSE); type: in vivo, human
Procedure: Exploratory outcome evaluations involved the assessment of cognitive and clinical function (Table 1). […] Items from the Neurological Testing Battery (NTB), together with the ADAS-Cog 13, Spatial Navigation Test (AMUNET) were performed at Baseline, Week 12 and Week 26 (Visits 2, 4 and 5). While the MMSE was used primarily as a screening and baseline disease staging tool, its repeated administration at Week 26 provided an additional exploratory cognitive outcome measure. The Geriatric Depression Scale (GDS) was assessed at each Visit (Screening, Baseline, Week 4, 12, 26: Visits 1-5) and the Clinical Global Impression test (CGI) with Severity was assessed at Screening (Visit 1) and then the Improvement was subsequently assessed at Weeks 12 and 26 (Visits 4 and 5). For each test, whether categorical or numeric, all raw scores were considered interval in nature. The change from Screening (Week −8) or Baseline (Week 0) was therefore be derived for each patient. Actual values at each Visit and Changes from Screening/Baseline were summarized.
Alzheimer's Disease Assessment Scale—13 items (total score=85) is used as a parameter for exploratory outcome analysis. ADAS-cog is a psychometric instrument designed to evaluate the severity of cognitive and non-cognitive behavioral dysfunctions characteristic of people with AD. The cognitive portion assesses memory, language and praxis functions. Most items are rated on a scale of 0 to 5, where 0 indicates no impairment and 1 to 5 indicates very mild (1), mild (2), moderate (3), moderately severe (4) or severe impairment (5) respectively. Other items are rated on the presence or absence of a characteristic number of errors or severity of errors. The total scores from the ADAS-cog sub-scales range from 0 (no impairment) to 85 (errors in all sub-tests).
A positive (i.e. increasing) change of the score indicates cognitive worsening. In a meta-analysis model of 52 Alzheimer's Disease trials involving 19,972 mild-moderate disease subjects, a spontaneous decline in performance corresponding to an increase in ADAS-cog score of 5.5 points over one year, pointing to an expected average increase in score of 2.75 points over a 6-month period.
ADAS-Cog was assessed at Visits 2, 4 and 5, as well as at the early discontinuation Visit, if applicable.
While the MMSE was used primarily as a screening and baseline disease-staging tool, its administration at Week 26 provided an additional exploratory cognitive outcome measure.
Mini Mental Status Exam (MMSE). The MMSE can be used by a physician to evaluate a patient's condition over the course of administration. A baseline value prior to administration of a salt of Formula (II) can serve as a basis for baseline disease stage and also for the assessment of the effect of treatment on slowing loss of cognitive function. The expected decline in MMSE over a six month period generally ranges 1-3 points out of the total of 30 points possible in the MMSE test.

[2] = tested on: Aβ42, Aβ40; experiment: Phase IIa CSF AD core biomarkers Aβ42 and Aβ40; type: in vivo, human
Text: CSF samples were obtained at screening Visit and final Visit via lumbar puncture to determine levels of tau, p-tau, Aβ40, Aβ42 and AChE activity as an initial set of CSF biomarkers. Aliquots of CSF were made available for emerging CSF biomarker methods such as measurement of additional biomarkers including neurofilaments light chain, neurogranin, SNAP-25, synaptotagmin, YKL-40, TREM2, tau oligomers and for measurement of drug level in selected patients based on the time period between last dose of drug and CSF sampling (FIG. 25 and FIG. 58).
Baseline CSF samples are obtained prior to administration via lumbar puncture. These samples are used to determine levels of tau, p-tau, Aβ40, Aβ42, AChE, neurofilament light chain, SNAP-25, synaptotagmin-1, neurogranin, sTREM, and YKL-40. Aliquots of CSF are also made available for emerging CSF biomarker methods such as measurement of tau oligomers and for measurement of drug level in selected patients based on time period between last dose of the salt of Formula (II) and CSF sampling. […] Many of these biomarkers can also be measured in blood or plasma. The change in values over the time period from pre-treatment to post-treatment are of particular importance. […] Absolute levels at single time points of neurofilament light chain, SNAP-25, synaptotagmin-1, neurogranin, sTREM, and YKL-40 in CSF or blood or plasma are of less value given differences in assay techniques and wide variation in absolute levels within normal subjects and within and across AD subjects. In contrast, absolute levels of Aβ42 and 40 at baseline are useful biomarkers indicating the presence of amyloid pathology as low levels of Aβ42 and 40 at a given time point are consistent with amyloid pathology.

[3] = tested on: subjects in SAD and MAD studies; experiment: Phase 1 SAD/MAD safety; type: in vivo
Text: The phase 1 study was placebo controlled and double blinded and included 52 subjects in SAD studies and 20 subjects in MAD studies.

[4] = tested on: healthy elderly volunteers; experiment: Phase I (1b) safety and tolerability, 600 mg b.i.d. for 10 days
Procedure: Trial specific stopping rules were set to protect the trial subjects. Dosing would have been stopped for all subjects and the trial terminated if any of the stopping rules had occurred.
15 healthy adults were screened within three weeks prior to the baseline visit. Following 5 screening failures, 10 healthy adults, 5 aged 18-64 years and 5 aged 65-84 years were enrolled.
A phase 1b studied was conducted in 10 elderly normal subjects for the purpose of obtaining plasma and CSF coordinated drug levels and to further assess safety at a dose of 600 mg bid over a 10-day period. The study was double-blinded and placebo controlled with 8 subjects receiving drug.

[5] = 600 mg b.i.d. oral, 10 days, 8 subjects
[6] = non-serious AE, 600 mg b.i.d. oral, 10 days

## CC[C@H](C)[C@H](N)C(=O)NCCN1CCOCC1 [LM11A-31-BHS, Tris[(2S,3S)-2-amino-3-methyl-N-(2-morpholinoethyl)pentanamide] tetra(monohydrogensulfate), monosulfate]
[1]; 200 mg bid and 400 mg bid versus placebo
  ADAS-cog-11, drug dose analysis: trend for decreased worsening of cognitive scores at both doses
[1]; 200 and 400 mg groups versus placebo
  ADAS-cog-13, drug dose analysis: nominal decrease in the increase in score
[1]; at 6 months, phase 2a study
  slowing trend in clinical outcome measures: 30-45%
[1]; combined drug group, 26 weeks, does not reach statistical significance
  worsening of ADAS-13 and -11 scores, drug versus placebo: trend in slowing the worsening
[1]; drug versus placebo
  directionality of slowing progression of worsening in ADAS-cog and MMSE: favorable effect of drug treatment
[1]; effects at neither dose reached statistical significance
  trends for slower progression of ADAS-cog and MMSE scores, dose comparison: greater at the 400 compared to 200 mg doses
[2]; combined drug group, 26 weeks, p=0.003
  CSF Ab 42 change in the drug group: went down by a significant amount
[2]; combined drug group, p=0.03
  CSF Ab 42, difference between placebo and drug: significant
[2]; daily treatment, CSF
  effect on levels of Aβ42 and 40: ability to lower levels of Aβ42 and 40
[3]; in vivo
  deaths, SAEs, severe TEAEs, discontinuations because of an AE: no deaths, SAEs, severe TEAEs, and no subjects were discontinued because of an AE
  intensity of TEAEs: All TEAEs were mild
  laboratory results, physical examination, vital signs, ECG, C-SSRS: No clinically significant laboratory results, physical examination findings, vital signs, ECG findings, or positive scores
[3]; multiple doses
  subjects who experienced TEAEs: 7 of 16
  total TEAEs: 8
[3]; multiple doses, remaining 2 possibly (flatulence) or remotely (nocturia) related
  TEAEs considered unrelated to study drug: 6
[3]; single dose
  subjects who experienced a TEAE: 1 of 40
[3]; single dose, postural dizziness, possibly related
  total TEAEs: 1
[3]; single doses of 100, 300, 600 and 900 mg free base, multiple doses of 300 BID and 600 mg free base QD
  safety and tolerability: generally safe and well tolerated
[4]; 600 mg BID up to ten days of treatment
  safety and tolerability in repeated dose schedule: support the safety and tolerability
[4]; 600 mg b.i.d. oral, 10 days
  number of deaths (all causes): 0
  number of deaths resulting from adverse events: 0
  serious adverse event Headache, occurrences causally related to treatment/all: 0/1
[4]; [5]
  drug related serious adverse events: 0 drug related adverse events
  mild drug related adverse events: 4 drug related adverse events
  moderate drug related adverse events: 0 drug related adverse events
  severe drug related adverse events: 0 drug related adverse events
[4]; [6]
  Abdominal pain, occurrences (all): 1
  Arthralgia, occurrences (all): 3
  Diarrhea, occurrences (all): 1
  Dry eye, occurrences (all): 0
  Flatulence, occurrences (all): 3
  Gamma-glutamyltransferase increased, occurrences (all): 1
  Headache, occurrences (all): 7
  Oropharyngeal pain, occurrences (all): 0
  Polyuria, occurrences (all): 1
  Presyncope, occurrences (all): 0
[4]; phase 1b, 600 mg bid, 10-day period, 8 subjects receiving drug
  alterations in physical examination, vital signs and ECG recordings: no clinically relevant alterations
[4]; phase 1b, 600 mg bid, 10 days, neither clinical relevance nor relationship with the study drug
  changes in haematological and biochemistry parameters: Minimal changes
